Assay results from PMC5761851, “Application of a phenotypic drug discovery strategy to identify biological and chemical starting points for inhibition of TSLP production in lung epithelial cells” (PLoS ONE, 2018).
pIC50: −log10 of the molar value. Where “and” joins values, the source holds several entries; their conditions need not be identical. Identical values can stand only once. Like-named read-outs stand apart in the source and are kept apart here.

Columns and labels:
[1] = system: TSLP production in NHBE cells; test: TSLP HTRF assay (TSLP production in poly I:C / IL-4 stimulated NHBE cells); format: cell-based, human; design: Inhibition of TSLP production in NHBE (% as indicated): concentration or dose not given beside the values
Protocol: For dose response curves determinations, stocks of test compounds at a concentration of 1.33x10^-3 M in DMSO were sequentially diluted at 1:4 dilution steps before further 1/50 dilution in BEBM medium containing 1x ITS and 0.1% BSA. For the highest 4 μM concentration test compounds were resuspended in DMSO at a concentration of 2.5x10^-3 M and diluted 1/25 in BEBM medium containing 1x ITS and 0.1% BSA before adding 1 μl to the wells containing the cells.
All subsequent steps were automated using a Sciclone® G3 workstation (Perkin Elmer) with a Twister™ II robot (Perkin Elmer). […] 1 μl of test compound solution prepared at 25x concentration was added to the wells containing NHBE cells. The plates were then incubated during 90 minutes at 37°C, 5% CO2, 90% humidity before adding poly I:C (Invivogen HMW Tirl-pic-5) and human IL-4 (Peprotech 200–04) stimulus in 4 μl of BEBM medium containing 1x ITS, 0.1% BSA and 0.1% DMSO using a Multidrop™. […] Cells were then incubated for 24h in the presence of test compounds and stimulus at 37°C, 5% CO2 and 90% humidity conditions. After the 24h incubation period the plates were transferred to a CyBi®-Well platform (CyBio AG) to collect 10 μl of the supernatants which were transferred to a new plate. TSLP levels in the supernatant were determined using a homogeneous Time-Resolved Fluorescence (HTRF) assay custom developed by Cisbio. The assay was based in the use of a donor dye (europium cryptate) coupled to a monoclonal anti-TSLP antibody and an acceptor dye (d2) coupled to a second polyclonal anti-TSLP antibody. […] 10 μl of the resulting solution was then used to determine TSLP levels as described above.
The standard curve was built with eight points prepared in ITS/BSA in BEBM medium without supplements, starting at 700 pg/ml and diluted 1:2, with medium alone being zero TSLP. Fitting model corresponded to equation 100 of Excel fit software. Data from the primary phenotypic screen was visualized using Vortex (Dotmatics). […] For compound selection the maximum inhibition of the two individual duplicate values was taken into account. Dose response confirmation was performed at single point in the 2 donors tested. 9 point curves were run starting at 4 μM concentration by doing serial 1:4 dilutions in cells derived from both donors.

[2] = system: CHO-K1 cells; test: CHO-K1 viability (ATPlite); format: cell-based
Protocol: The viability of NHBE and CHO-K1 cells was quantified using ATP as an indirect read out of the potential cytotoxicity of the compounds. […] Plates were shaken and covered with aluminium foil for 25 min. Luminescence was measured in an Envision reader (Perkin Elmer). Evaluation of viability in CHO-K1 cells was used as an internal compound cytotoxicity standard across cellular assays. […] The plates were incubated for 24 h at 37°C in 5% CO2. After the incubation period, the culture medium was removed and washed with 100 μl of DPBS. Test compounds were dissolved and serially diluted in 100% DMSO. A final 1/100 dilution of each concentration was performed using F12 culture medium with 0.5% FBS. A volume of 100 μl culture medium containing the compounds or 1% DMSO (for control wells) was added to the wells containing the cells and the plate was incubated again 24h. After 24h of compound exposure, cells were washed with DPBS. Then, 100 μl of PBS were added, followed by the addition of 100 μl of ATPlite™ reagent. The plate was shaken for 25 minutes using a microtiter plate shaker. Luminescence was measured using a Luminoskan Ascent luminometer (Thermo Fisher Scientific).
For CHO-K1 viability assays, a standard curve of cells was included in the plate. Luminescence values versus cell number were plotted and the data adjusted to a linear equation. Luminescence values of the samples were interpolated to obtain number of cells. IC50 values were obtained by non-linear regression using Activity Base software (IDBS) and a four-parameter log equation.

[3] = system: TBK1/IKKɛ, PDK-1, Aurora B, ERK8, MARK, NUAK1, MLK, c-Kit, CDK2/CyclinE, Chk1, GSK-3β, PKA, KDR, T-Fyn and PCK; design: method as in PMID 19307177; settings: read-out: IC50 on BX795 targets within the pharmacological range; cited from earlier work
[4] = molecular target: T1, mTOR (Homo sapiens, UniProt P42345); settings: read-out: reported kinase inhibitory activity (IC50); cited from earlier work
T1 construct: Eurofins Pharma Discovery Services (contract assay service)

[5] = system: TSLP mRNA levels in NHBE cells; test: TSLP mRNA real-time PCR (qPCR) in NHBE cells; format: cell-based, human; design: TSLP mRNA upregulation (% versus control) / % Inhibition of mRNA: dose or concentration left out as unconfirmed; settings: for % Inhibition of mRNA at [4 μM] ± SD: NHBE donor #1, 6 h stimulation; for % Inhibition of mRNA: individual values, donor #1
[6] = Homo sapiens, NHBE, 24 h, NHBE cells donor #1, poly I:C / IL-4, 24h, geometric mean, read-out: Inhibition of TSLP protein production (IC50, μM) (95% CI)
[7] = individual values, donor #1, read-out: Inhibition of TSLP production in NHBE (IC50)

| Structure (SMILES) | IC50 [1, 6] [µM] | pIC50 [1, 7] | % Inhibition of mRNA at [4 μM] ± SD [5] [%] | % Inhibition of mRNA [5] | also measured |
| --- | --- | --- | --- | --- | --- |
| COc1ccc(-c2ccc3c(N4CCOC[C@@H]4C)nc(N4CCOC[C@@H]4C)nc3n2)cc1CO [AZD8055, reference compound] | 0.002 | 9.01 and 8.32 and 8.33 |  |  | Inhibition of CHO viability % Inhibition ± SD at 3.12 μM [2]: 20.47% ± 4.6 (n = 4) |
| O=C(NCCCNc1nc(Nc2cccc(NC(=O)N3CCCC3)c2)ncc1I)c1cccs1 [BX795, reference compound] |  |  |  |  | pIC50 ([1]; Homo sapiens, NHBE, donor #1, representative curve, read-out: IC50): 7.23; pIC50 ([1]; Homo sapiens, NHBE, donor #2, representative curve, read-out: IC50): 7.10; IC50 ([1]; individual values, donor #1, read-out: Inhibition of TSLP production in NHBE (IC50, mM) by BX795, Donor #1): 0.048 µM and 0.059 µM and 0.168 µM and 0.177 µM; IC50 ([1]; individual values, donor #2, read-out: Inhibition of TSLP production in NHBE (IC50, mM) by BX795, Donor #2): 0.198 µM and 0.078 µM and 0.183 µM and 0.143 µM; pIC50 [3]: > 6.00 |
| CO[C@H]1C[C@@H]2CC[C@@H](C)[C@@](O)(O2)C(=O)C(=O)N2CCCC[C@H]2C(=O)O[C@H]([C@H](C)C[C@@H]2CC[C@@H](OCCO)[C@H](OC)C2)CC(=O)[C@H](C)/C=C(\C)[C@@H](O)[C@@H](OC)C(=O)[C@H](C)C[C@H](C)/C=C/C=C/C=C/1C [Everolimus, reference compound] |  |  |  |  | inhibition at 0.031 µM ([1]; Homo sapiens, 0.031 μM, NHBE donor #1, read-out: Inhibition of TSLP protein production % Inhibition ± SD at): 79.4%; Inhibition of TSLP production in NHBE (% as indicated) ([1]; individual values, donor #1): 62.23% and 73.18% and 78.84% and 103.38%; pIC50 [4]: 8.70 to 9.00; Inhibition of CHO viability % Inhibition ± SD at 3.12 μM [2]: -0.16% ± 2.3 (n = 4) |
| COC(=O)Nc1nc2ccc(C(=O)c3cccs3)cc2[nH]1 [Nocodazole, reference compound] | 0.9 | 5.91 and 6.29 and 5.94 | 84.62 ± 1.76 | 83.366% and 85.867% |  |
| C[C@@H]1O[C@@H](O[C@H]2C[C@@H](O)[C@]3(CO)[C@H]4[C@H](O)C[C@]5(C)[C@@H](C6=CC(=O)OC6)CC[C@]5(O)[C@@H]4CC[C@]3(O)C2)[C@H](O)[C@H](O)[C@H]1O [Ouabain, reference compound] | 0.016 | 7.89 and 7.85 | 94.64 ± 0.33 | 94.409% and 94.877% | pIC50 ([1]; Homo sapiens, NHBE, individual values, donor #1, read-out: Inhibition of TSLP production in NHBE (IC50)): 7.66 |
| C[C@@H]1CCN(C(=O)CC#N)C[C@@H]1N(C)c1ncnc2[nH]ccc12 [Tofacitinib, reference compound] |  |  |  |  | Inhibition of CHO viability at [25 μM] % Inhibition ± SD ([2]; 25 μM): 0.37 ± 4.3% |
| COc1ccc(N(C)c2nc(NC/C=C(\C)CCC=C(C)C)nc3ccccc23)cc1 [compound 6] | 0.101 | 6.92 and 7.21 and 6.85 | 95.04 ± 0.77 | 95.589% and 94.492% |  |
